Source: the supplement of paper PMC10307832

What was measured:
Experiment in all cases: relative viability (nuclei count vs DMSO), 5 days (fraction); higher = more cells survive
[1] = compound: C1CC2=C(C1)C=C(C=C2)OC3=NC(=C4C(=N3)N(C=N4)CC5=CC=C(C=C5)C6=CC=CC=C6)N[C@@H](CC7=CC=CC=C7)CO [QS11] + COc1cccc2cc(-c3nc([C@H]4CC[C@H](C(=O)O)CC4)n4ncnc(N)c34)[nH]c12 [OSI-027] (partner 0.5 µM)
In short: (§1)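 After 5 days of treatment, lung cancer cells in 1536-well plates were fixed and stained in a single step (final 0.05% Triton X-100, 1% formaldehyde, 1 ug/ml Hoechst) and their nuclei counted on 4× images. Treatment had been applied by pin tool the day after seeding as one drug alone or as a fixed anchor-drug dose with five library-drug doses (not always all listed) in √10 steps. Relative viability is the nuclei count of treated wells divided by that of vehicle wells, and values are medians of duplicate plates.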

[2] = compound: C1CC2=C(C1)C=C(C=C2)OC3=NC(=C4C(=N3)N(C=N4)CC5=CC=C(C=C5)C6=CC=CC=C6)N[C@@H](CC7=CC=CC=C7)CO [QS11] + N=C(N)NC(=N)NCCc1ccccc1 [Phenformin] (partner 250 µM)
In short: as §1

[3] = compound: CC1=C(C=C(C=C1)NC(=O)C2=CC(=CC=C2)C(C)(C)C#N)NC3=CC4=C(C=C3)N=CN(C4=O)C [AZ628] + CC(C)C[C@H](NC(=O)[C@H](Cc1ccccc1)NC(=O)c1cnccn1)B(O)O [Bortezomib] (partner 0.002 µM)
In short: as §1

[4] = compound: C[As](C)SC[C@H](NC(=O)CC[C@H](N)C(=O)O)C(=O)NCC(=O)O [Darinaparsin] + CC(C)C[C@H](NC(=O)[C@H](Cc1ccccc1)NC(=O)c1cnccn1)B(O)O [Bortezomib] (partner 0.002 µM)
In short: as §1

Cell Line | relative viability ([1]; first compound 0.08 µM) | relative viability ([1]; first compound 0.253 µM) | relative viability ([1]; first compound 0.8 µM) | relative viability ([1]; first compound 2.53 µM) | relative viability ([1]; first compound 8 µM) | relative viability ([2]; first compound 0.08 µM) | relative viability ([2]; first compound 0.253 µM) | relative viability ([2]; first compound 0.8 µM) | relative viability ([2]; first compound 2.53 µM) | relative viability ([2]; first compound 8 µM) | relative viability ([3]; first compound 0.08 µM) | relative viability ([3]; first compound 0.253 µM) | relative viability ([3]; first compound 0.8 µM) | relative viability ([3]; first compound 2.53 µM) | relative viability ([3]; first compound 8 µM) | relative viability ([4]; first compound 0.08 µM) | relative viability ([4]; first compound 0.8 µM) | relative viability ([4]; first compound 2.53 µM) | relative viability ([4]; first compound 8 µM)
NCI-H650 | 0.513 | 0.513 | 0.548 | 0.483 | 0.456 | 0.428 | 0.486 | 0.475 | 0.392 | 0.399 | 1.2 | 1.05 | 1.32 | 0.744 | 1.02 | 0.881 | 0.894 | 0.728 | 0.776
PC-3 [JPC-3] | 0.794 | 0.743 | 0.371 | 0.718 | 0.739 | 0.446 | 0.476 | 0.461 | 0.489 | 0.431 | 0.778 | 0.924 | 0.9 | 0.801 | 0.857 | 0.98 | 0.829 | 0.73 | 0.815
CAL-12T | 0.656 | 0.457 | 0.498 | 0.385 | 0.407 | 0.571 | 0.572 | 0.552 | 0.594 | 0.561 | 0.948 |  | 0.747 | 0.835 | 0.779 | 1.01 | 0.924 | 0.94 | 0.997
NCI-H322M | 0.549 | 0.607 | 0.636 | 0.687 | 0.732 | 0.784 | 0.824 | 0.803 | 0.877 | 1.06 | 1.36 | 1.46 | 1.28 | 1.38 | 1.11 | 1.21 | 1.3 | 1.04 | 1.32
LCLC-103H | 0.434 | 0.45 | 0.469 | 0.49 | 0.502 | 0.315 | 0.403 | 0.341 | 0.342 | 0.382 | 0.932 | 1.13 | 1.09 | 1.02 | 1.18 | 1.05 | 0.978 | 1.14 | 1.35
A-427 | 0.411 | 0.455 |  | 0.507 | 0.408 | 0.286 | 0.358 |  | 0.34 | 0.363 | 0.884 | 0.993 | 1.1 | 0.94 | 0.452 | 1.05 | 0.977 | 0.954 | 1.08
NCI-H1563 | 0.67 | 0.775 | 0.741 | 0.745 | 0.693 | 0.661 | 0.682 | 0.723 | 0.637 | 0.624 | 0.898 | 0.856 | 0.894 | 0.855 | 0.95 | 0.831 | 0.862 | 0.828 | 0.93
NCI-H1355 | 0.392 | 0.324 | 0.334 | 0.35 | 0.334 | 0.445 | 0.444 | 0.457 | 0.418 | 0.457 | 1.21 | 1.03 | 1.12 | 1.12 | 1.1 | 1.38 | 1.13 | 1.19 | 1.36
NCI-H2023 | 0.477 | 0.344 | 0.52 | 0.486 | 0.364 | 0.304 | 0.473 | 0.411 | 0.457 | 0.459 | 1.19 | 1.07 | 1.06 | 0.981 | 0.821 | 1.36 | 0.956 | 0.892 | 1.06
NCI-H520 | 0.196 | 0.265 | 0.297 | 0.175 | 0.268 | 0.476 | 0.687 | 0.607 | 0.489 | 0.574 | 0.732 | 0.476 | 0.502 | 0.591 | 0.571 | 0.765 | 0.491 | 0.531 | 0.474
NCI-H2087 | 0.523 | 0.5 |  | 0.532 | 0.532 | 0.479 | 0.46 |  | 0.521 | 0.657 | 0.831 | 0.738 | 0.783 | 0.775 | 0.399 | 1.02 | 0.944 | 0.948 | 1.13
NCI-H596 | 0.715 | 0.688 | 0.679 | 0.66 | 0.732 | 0.736 | 0.81 | 0.804 | 0.832 | 0.874 | 1 | 1.03 | 1.09 | 1.09 | 1.27 | 1.35 | 1.09 | 1 | 1
NCI-H2009 | 0.66 | 0.639 | 0.53 | 0.448 | 0.462 | 0.466 | 0.498 | 0.459 | 0.419 | 0.416 | 0.939 | 0.881 | 0.65 | 0.689 | 0.295 | 1.1 | 1.06 | 0.963 | 0.845
NCI-H1993 | 0.582 | 0.674 | 0.547 | 0.538 | 0.5 | 0.522 | 0.583 | 0.528 | 0.615 | 0.52 | 1.1 | 1.03 | 0.932 | 0.711 | 0.815 | 1.24 | 0.875 | 1.31 | 1.04
COR-L23 | 0.756 | 0.881 | 0.568 | 0.475 | 0.444 | 0.461 | 0.452 | 0.44 | 0.39 | 0.366 | 1.04 | 1.04 | 0.97 | 1.14 | 0.645 | 1.64 | 0.995 | 0.77 | 1.17
NCI-H1792 | 0.731 | 0.969 | 0.65 | 0.565 | 0.82 | 0.219 |  | 0.338 | 0.268 | 0.178 | 1.06 | 0.925 | 0.857 | 0.923 | 0.555 | 1.69 | 1.03 | 0.652 | 1.03
HOP-62 | 0.879 | 0.845 | 0.811 | 0.65 | 0.837 | 0.677 | 0.743 | 0.657 | 0.497 | 0.669 | 0.814 | 0.832 | 1.12 | 0.975 | 0.805 | 1.31 | 0.784 | 1.12 | 0.671
